Results reported in ChEMBL document CHEMBL5154761, “Design, synthesis, and evaluation of 9-(pyrimidin-2-yl)-9H-carbazole derivatives disrupting mitochondrial homeostasis in human lung adenocarcinoma” (Eur J Med Chem, 2022).
Calls of active or inactive are those of the source. No cut-off for these calls is given here.

Assays:
[1] = tested on: A549; assay: Cytotoxicity against human A549 cells assessed as cell growth inhibition incubated for 48 hrs by MTT assay; assay type: functional, cell-based; conditions: A549, 48 h
[2] = tested on: A549; assay: Cytotoxicity against human A549 cells assessed as cell growth inhibition at 10 uM incubated for 48 hrs by MTT assay relative to control; assay type: functional
[3] = tested on: A549; assay: Induction of cell cycle arrest in human A549 cells assessed as accumulation at G2/M phase at 10 uM incubated for 48 hrs by PI staining based flow cytometry analysis; assay type: functional

With `O=C(c1ccccc1)c1cccc2c3ccccc3n(-c3ncccn3)c12` the IC50 [1] was 5.32 µM, the inhibition at 10 µM [2] was 50% and the Activity [3] was “Active”.

For `Cc1c2ccncc2c(C)c2c1[nH]c1ccccc12` [ELLIPTECINE], the IC50 [1] was 3.45 µM.

For `O=C(c1ccco1)c1cccc2c3ccccc3n(-c3ncccn3)c12`, the IC50 [1] was 14.9 µM, the inhibition at 10 µM [2] was 50% and the Activity [3] was “Active”.

For `O=C(c1cccc(Cl)c1)c1cccc2c3ccccc3n(-c3ncccn3)c12`, the IC50 [1] was 7.19 µM, the inhibition at 10 µM [2] was 50% and the Activity [3] was “Active”.

For `COc1ccccc1C(=O)c1cccc2c3ccccc3n(-c3ncccn3)c12`, the IC50 [1] was 4.02 µM, the inhibition at 10 µM [2] was under 50% and the Activity [3] was “Active”.

In the case of `O=C(c1ccc(Cl)cc1)c1cccc2c3ccccc3n(-c3ncccn3)c12`, the IC50 [1] is reported as 6.69 µM, the inhibition at 10 µM [2] is reported as 50% and the Activity [3] is reported as “Active”.
